Experimental data reported in ChEMBL document CHEMBL1136839, “3,4-Disubstituted isothiazoles: novel potent inhibitors of VEGF receptors 1 and 2” (Bioorg Med Chem Lett, 2009).

Legend:
[1] = molecular target: Fibroblast growth factor receptor 1 (Homo sapiens) (UniProt P11362); assay: Inhibition of FGFR1 at 10 uM by HTRF assay
[2] = molecular target: Serine/threonine-protein kinase PLK1 (Homo sapiens) (UniProt P53350); assay: Inhibition of Plk1 at 10 uM by HTRF assay
[3] = molecular target: Vascular endothelial growth factor receptor 1 (Homo sapiens, UniProt P17948); assay: Inhibition of VEGFR1 assessed as blockade of pGAT-biotin phosphorylation in presence of 2 uM ATP by HTRF assay
[4] = molecular target: T1, Vascular endothelial growth factor receptor 2 (Homo sapiens, UniProt P35968); assay: Inhibition of VEGFR2 assessed as blockade of pGAT-biotin phosphorylation in presence of 2 uM ATP by HTRF assay
T1 sequence (P35968 whole entry): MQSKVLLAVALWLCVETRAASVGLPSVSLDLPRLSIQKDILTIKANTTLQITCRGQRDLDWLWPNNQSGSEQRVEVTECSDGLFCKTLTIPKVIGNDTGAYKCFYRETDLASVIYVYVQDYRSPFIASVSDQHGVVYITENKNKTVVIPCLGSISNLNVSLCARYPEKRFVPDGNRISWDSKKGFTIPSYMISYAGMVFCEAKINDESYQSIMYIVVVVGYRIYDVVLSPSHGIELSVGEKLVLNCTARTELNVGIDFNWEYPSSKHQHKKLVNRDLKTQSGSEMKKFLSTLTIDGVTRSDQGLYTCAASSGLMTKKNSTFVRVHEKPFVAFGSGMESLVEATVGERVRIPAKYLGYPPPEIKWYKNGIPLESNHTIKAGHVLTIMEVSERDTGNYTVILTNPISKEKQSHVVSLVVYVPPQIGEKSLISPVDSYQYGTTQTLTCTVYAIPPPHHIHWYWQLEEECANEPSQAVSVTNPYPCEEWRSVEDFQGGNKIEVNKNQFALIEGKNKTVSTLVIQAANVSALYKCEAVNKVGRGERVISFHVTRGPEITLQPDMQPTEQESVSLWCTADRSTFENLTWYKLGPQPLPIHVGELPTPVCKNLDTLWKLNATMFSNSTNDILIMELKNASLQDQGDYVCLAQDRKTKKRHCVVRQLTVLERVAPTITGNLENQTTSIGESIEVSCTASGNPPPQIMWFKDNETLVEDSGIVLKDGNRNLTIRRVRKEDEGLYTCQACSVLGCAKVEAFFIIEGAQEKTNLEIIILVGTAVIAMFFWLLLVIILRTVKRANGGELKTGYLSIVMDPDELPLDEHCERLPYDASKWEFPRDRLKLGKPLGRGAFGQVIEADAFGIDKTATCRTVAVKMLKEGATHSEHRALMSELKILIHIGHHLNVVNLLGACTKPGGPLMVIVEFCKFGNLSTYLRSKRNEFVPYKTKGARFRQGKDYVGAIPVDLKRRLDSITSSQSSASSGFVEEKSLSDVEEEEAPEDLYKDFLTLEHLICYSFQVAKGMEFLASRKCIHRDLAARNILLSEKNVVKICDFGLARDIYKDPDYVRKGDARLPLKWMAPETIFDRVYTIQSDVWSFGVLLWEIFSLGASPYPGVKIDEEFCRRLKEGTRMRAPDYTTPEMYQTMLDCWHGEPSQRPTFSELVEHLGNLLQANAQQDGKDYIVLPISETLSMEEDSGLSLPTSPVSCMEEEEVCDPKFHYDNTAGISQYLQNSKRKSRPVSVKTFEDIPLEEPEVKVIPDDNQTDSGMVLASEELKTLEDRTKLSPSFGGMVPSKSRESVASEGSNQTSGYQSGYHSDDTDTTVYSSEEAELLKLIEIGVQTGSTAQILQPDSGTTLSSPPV

[5] = molecular target: Glycogen synthase kinase-3 beta (Homo sapiens) (UniProt P49841); assay: Inhibition of GSK3-beta at 10 uM by HTRF assay
[6] = molecular target: Insulin-like growth factor 1 receptor (Homo sapiens) (UniProt P08069); assay: Inhibition of IGF1R at 10 uM by HTRF assay
[7] = Inhibition of Bcr-Abl T315 mutant at 10 uM by HTRF assay
[8] = molecular target: Proto-oncogene tyrosine-protein kinase Src (Homo sapiens) (UniProt P12931); assay: Inhibition of Src at 10 uM by HTRF assay
[9] = molecular target: T2, Aurora kinase A (Homo sapiens) (UniProt O14965); assay: Inhibition of Aurora A at 10 uM by HTRF assay
T2 sequence (whole entry): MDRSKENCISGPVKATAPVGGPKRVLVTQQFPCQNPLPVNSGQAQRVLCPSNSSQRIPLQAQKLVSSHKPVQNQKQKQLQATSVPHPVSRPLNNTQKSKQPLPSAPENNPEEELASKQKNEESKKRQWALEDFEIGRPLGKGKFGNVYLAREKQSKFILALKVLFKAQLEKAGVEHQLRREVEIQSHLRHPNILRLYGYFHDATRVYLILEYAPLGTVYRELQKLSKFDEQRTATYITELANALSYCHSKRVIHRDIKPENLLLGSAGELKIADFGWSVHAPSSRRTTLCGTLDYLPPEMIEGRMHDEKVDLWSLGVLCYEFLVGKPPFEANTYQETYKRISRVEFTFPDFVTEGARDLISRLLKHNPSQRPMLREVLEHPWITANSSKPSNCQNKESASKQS

[10] = molecular target: Hepatocyte growth factor receptor (Homo sapiens) (UniProt P08581); assay: Inhibition of cMET at 10 uM by HTRF assay
[11] = molecular target: Bcr/Abl fusion protein (Homo sapiens) (UniProt P00519+P11274); assay: Inhibition of bcr-Abl at 10 uM by HTRF assay; assay type: protein assay
[12] = Inhibition of PKA at 10 uM by HTRF assay
[13] = molecular target: Receptor-type tyrosine-protein kinase FLT3 (Homo sapiens) (UniProt P36888); assay: Inhibition of Flt3 at 10 uM by HTRF assay
[14] = molecular target: T1, Vascular endothelial growth factor receptor 2; assay: Inhibition of VEGFR2 expressed in HEK293 cells assessed as inhibition of receptor phosphorylation by ELISA; assay type: cell-based
[15] = molecular target: Aurora kinase B (Homo sapiens) (UniProt Q96GD4); assay: Inhibition of Aurora B at 10 uM by HTRF assay
[16] = molecular target: Receptor tyrosine-protein kinase erbB-2 (Homo sapiens) (UniProt P04626); assay: Inhibition of ErbB2 at 10 uM by HTRF assay
[17] = molecular target: Cyclin-dependent kinase 2 (Homo sapiens) (UniProt P24941); assay: Inhibition of CDK2 at 10 uM by HTRF assay
[18] = molecular target: Cyclin-dependent kinase 1 (Homo sapiens) (UniProt P06493); assay: Inhibition of CDK1 at 10 uM by HTRF assay
Sequence of Cyclin-dependent kinase 1 (Homo sapiens) (P06493 whole entry, looked up): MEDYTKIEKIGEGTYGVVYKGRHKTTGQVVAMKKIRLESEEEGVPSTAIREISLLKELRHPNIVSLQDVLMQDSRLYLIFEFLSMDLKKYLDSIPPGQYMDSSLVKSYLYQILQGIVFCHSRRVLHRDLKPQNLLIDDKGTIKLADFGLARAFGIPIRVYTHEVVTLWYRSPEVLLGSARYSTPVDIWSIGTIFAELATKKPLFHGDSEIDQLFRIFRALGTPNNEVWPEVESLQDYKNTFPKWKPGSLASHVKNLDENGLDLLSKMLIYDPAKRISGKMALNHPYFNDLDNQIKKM

[19] = molecular target: Epidermal growth factor receptor (Homo sapiens) (UniProt P00533); assay: Inhibition of EGFR at 10 uM by HTRF assay
Sequence of Epidermal growth factor receptor (Homo sapiens) (P00533 whole entry): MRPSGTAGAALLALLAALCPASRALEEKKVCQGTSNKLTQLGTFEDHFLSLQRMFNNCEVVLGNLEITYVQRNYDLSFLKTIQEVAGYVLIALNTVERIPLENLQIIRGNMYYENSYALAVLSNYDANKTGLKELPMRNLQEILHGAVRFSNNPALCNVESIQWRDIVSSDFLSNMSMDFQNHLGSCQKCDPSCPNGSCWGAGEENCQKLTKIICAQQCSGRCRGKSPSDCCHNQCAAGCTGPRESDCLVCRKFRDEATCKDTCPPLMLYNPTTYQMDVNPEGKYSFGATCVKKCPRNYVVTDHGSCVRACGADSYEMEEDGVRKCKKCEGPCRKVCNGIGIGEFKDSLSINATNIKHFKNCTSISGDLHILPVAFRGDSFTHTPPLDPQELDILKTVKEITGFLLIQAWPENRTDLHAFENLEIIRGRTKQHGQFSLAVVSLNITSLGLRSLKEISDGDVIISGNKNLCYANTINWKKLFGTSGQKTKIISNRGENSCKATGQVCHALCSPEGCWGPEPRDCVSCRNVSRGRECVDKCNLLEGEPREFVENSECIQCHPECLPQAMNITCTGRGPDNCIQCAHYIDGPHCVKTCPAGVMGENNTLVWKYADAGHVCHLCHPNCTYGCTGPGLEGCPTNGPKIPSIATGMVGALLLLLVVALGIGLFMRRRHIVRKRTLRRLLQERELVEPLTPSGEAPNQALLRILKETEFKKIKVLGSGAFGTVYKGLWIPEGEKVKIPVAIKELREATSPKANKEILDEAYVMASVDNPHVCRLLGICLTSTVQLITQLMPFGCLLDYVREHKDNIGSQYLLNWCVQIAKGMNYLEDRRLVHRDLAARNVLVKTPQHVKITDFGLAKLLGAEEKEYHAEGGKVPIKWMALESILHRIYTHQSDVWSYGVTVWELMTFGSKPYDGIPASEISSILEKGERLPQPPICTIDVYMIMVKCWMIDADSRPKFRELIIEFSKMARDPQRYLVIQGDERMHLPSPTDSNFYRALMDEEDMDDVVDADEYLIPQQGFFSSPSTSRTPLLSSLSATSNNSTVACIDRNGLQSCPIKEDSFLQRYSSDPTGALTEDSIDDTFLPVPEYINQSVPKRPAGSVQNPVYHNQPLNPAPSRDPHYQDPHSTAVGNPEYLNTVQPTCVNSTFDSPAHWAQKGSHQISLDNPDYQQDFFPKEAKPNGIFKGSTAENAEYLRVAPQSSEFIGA

[20] = molecular target: Macrophage-stimulating protein receptor (Homo sapiens) (UniProt Q04912); assay: Inhibition of Ron at 10 uM by HTRF assay
[21] = molecular target: Insulin receptor (Homo sapiens) (UniProt P06213); assay: Inhibition of InR at 10 uM by HTRF assay
Sequence of Insulin receptor (Homo sapiens) (P06213 28-758 limits assumed): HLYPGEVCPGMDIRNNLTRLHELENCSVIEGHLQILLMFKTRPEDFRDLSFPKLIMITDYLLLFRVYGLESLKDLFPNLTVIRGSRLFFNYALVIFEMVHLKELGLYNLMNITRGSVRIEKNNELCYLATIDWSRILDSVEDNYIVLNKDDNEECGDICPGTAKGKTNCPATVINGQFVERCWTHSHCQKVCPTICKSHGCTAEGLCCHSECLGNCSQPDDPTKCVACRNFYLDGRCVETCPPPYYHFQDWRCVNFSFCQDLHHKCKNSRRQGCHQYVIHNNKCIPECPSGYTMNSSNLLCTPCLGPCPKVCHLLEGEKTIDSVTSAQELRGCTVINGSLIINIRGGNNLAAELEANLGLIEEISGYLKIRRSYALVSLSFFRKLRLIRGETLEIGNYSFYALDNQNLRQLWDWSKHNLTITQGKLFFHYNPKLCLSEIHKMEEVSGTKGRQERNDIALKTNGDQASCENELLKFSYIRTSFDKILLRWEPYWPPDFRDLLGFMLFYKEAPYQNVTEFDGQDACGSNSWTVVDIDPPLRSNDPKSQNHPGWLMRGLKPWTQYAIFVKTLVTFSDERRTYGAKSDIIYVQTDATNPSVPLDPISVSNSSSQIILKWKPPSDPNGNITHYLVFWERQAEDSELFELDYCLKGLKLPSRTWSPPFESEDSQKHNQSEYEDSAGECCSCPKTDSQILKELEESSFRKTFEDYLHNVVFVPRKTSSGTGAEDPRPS
Sequence of Insulin receptor (Homo sapiens) (P06213 763-1382 limits assumed): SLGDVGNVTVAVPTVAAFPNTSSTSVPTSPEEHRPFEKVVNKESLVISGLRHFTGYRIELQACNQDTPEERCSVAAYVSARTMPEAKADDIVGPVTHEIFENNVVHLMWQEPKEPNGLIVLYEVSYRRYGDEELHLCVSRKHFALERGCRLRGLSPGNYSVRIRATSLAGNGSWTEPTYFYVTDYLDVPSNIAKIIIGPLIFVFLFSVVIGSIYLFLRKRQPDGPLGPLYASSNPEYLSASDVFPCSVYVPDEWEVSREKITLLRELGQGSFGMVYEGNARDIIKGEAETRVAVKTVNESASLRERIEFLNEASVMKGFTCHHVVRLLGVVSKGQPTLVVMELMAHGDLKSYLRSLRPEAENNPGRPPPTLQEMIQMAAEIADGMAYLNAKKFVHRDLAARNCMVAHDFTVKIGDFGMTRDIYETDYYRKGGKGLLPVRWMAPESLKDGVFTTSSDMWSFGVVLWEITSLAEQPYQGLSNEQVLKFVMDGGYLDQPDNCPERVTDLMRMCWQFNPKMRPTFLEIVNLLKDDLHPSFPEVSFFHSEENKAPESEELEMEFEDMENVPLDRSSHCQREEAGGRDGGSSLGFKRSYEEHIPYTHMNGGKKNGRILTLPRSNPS

Sequence of Fibroblast growth factor receptor 1 (Homo sapiens) (P11362 22-822 limits assumed): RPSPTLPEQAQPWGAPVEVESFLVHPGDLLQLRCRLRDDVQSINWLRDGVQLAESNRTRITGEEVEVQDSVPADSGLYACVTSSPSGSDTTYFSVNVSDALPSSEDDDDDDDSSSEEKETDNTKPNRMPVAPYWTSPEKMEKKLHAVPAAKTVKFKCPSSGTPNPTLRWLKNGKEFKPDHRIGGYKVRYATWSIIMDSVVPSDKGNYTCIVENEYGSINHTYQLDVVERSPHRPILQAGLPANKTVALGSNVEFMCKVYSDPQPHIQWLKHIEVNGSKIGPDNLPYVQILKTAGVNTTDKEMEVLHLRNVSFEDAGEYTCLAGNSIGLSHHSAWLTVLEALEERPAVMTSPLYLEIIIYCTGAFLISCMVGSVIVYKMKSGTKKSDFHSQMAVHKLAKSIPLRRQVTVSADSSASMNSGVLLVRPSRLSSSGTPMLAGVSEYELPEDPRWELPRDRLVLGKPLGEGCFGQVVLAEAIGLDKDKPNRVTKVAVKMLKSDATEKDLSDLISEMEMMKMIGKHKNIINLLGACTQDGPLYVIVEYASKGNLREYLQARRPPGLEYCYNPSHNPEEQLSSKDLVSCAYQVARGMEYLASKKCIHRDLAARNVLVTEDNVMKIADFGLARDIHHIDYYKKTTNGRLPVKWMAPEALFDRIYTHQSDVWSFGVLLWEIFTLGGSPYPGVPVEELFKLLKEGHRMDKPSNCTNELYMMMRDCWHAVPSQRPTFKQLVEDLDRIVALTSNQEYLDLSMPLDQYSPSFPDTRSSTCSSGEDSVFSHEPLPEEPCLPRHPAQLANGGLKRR

| inhibition [1] | inhibition [5] | inhibition [6] | inhibition [7] | inhibition [8] | inhibition [10] | inhibition [11] | inhibition [12] | inhibition [13] | inhibition [16] | inhibition [17] | inhibition [18] | inhibition [19] | inhibition [20] | inhibition [21] | SMILES | also measured |
| --- | --- | --- | --- | --- | --- | --- | --- | --- | --- | --- | --- | --- | --- | --- | --- | --- |
| < 30% | < 30% | < 30% | < 30% | < 30% | < 30% | < 30% | < 30% | < 30% | < 30% | < 30% | < 30% | < 30% | < 30% | < 30% | O=C(Nc1ccc(OC(F)(F)F)cc1)c1nscc1NCc1ccncc1 | – |
| < 30% | < 30% | < 30% | < 30% | < 30% | < 30% | < 30% | < 30% | < 30% | < 30% | < 30% | < 30% | < 30% | < 30% | < 30% | O=C(Nc1ccc(C(F)(F)F)cc1)c1nscc1NCc1ccncc1 | – |
| < 30% | < 30% | < 30% | < 30% | < 30% | < 30% | < 30% | < 30% | < 30% | < 30% | < 30% | < 30% | < 30% | < 30% | < 30% | CC(C)(C)c1ccc(NC(=O)c2nscc2NCc2ccncc2)cc1 | – |
| < 30% | < 30% | < 30% | < 30% | < 30% | < 30% | < 30% | < 30% | < 30% | < 30% | < 30% | < 30% | < 30% | < 30% | < 30% | O=C(Nc1ccc(C(F)(F)F)cc1)c1nscc1NCc1ccccn1 | – |
| < 30% | < 30% | < 30% | < 30% | < 30% | < 30% | < 30% | < 30% | < 30% | < 30% | < 30% | < 30% | < 30% | < 30% | < 30% | O=C(Nc1ccc(C(F)(F)F)cc1)c1nscc1NCc1cccnc1 | – |
| < 30% | < 30% | < 30% | < 30% | < 30% | < 30% | < 30% | < 30% | < 30% | < 30% | < 30% | < 30% | < 30% | < 30% | < 30% | O=C(Nc1cccc(C(F)(F)F)c1)c1nscc1NCc1cccnc1 | – |

Continued, compound first:

| SMILES | inhibition [1] | inhibition [5] | inhibition [6] | inhibition [7] | inhibition [8] | inhibition [10] | inhibition [11] | inhibition [12] | inhibition [13] | inhibition [16] | inhibition [17] | inhibition [18] | inhibition [19] | inhibition [20] | inhibition [21] | also measured |
| --- | --- | --- | --- | --- | --- | --- | --- | --- | --- | --- | --- | --- | --- | --- | --- | --- |
| O=C(Nc1cccc(Br)c1)c1nscc1NCCc1ccc2c(c1)OCO2 | < 30% | < 30% | < 30% | < 30% | < 30% | < 30% | < 30% | < 30% | < 30% | < 30% | < 30% | < 30% | < 30% | < 30% | < 30% | inhibition [2]: < 30%; IC50 [3]: > 10000 nM; IC50 [4]: > 10000 nM; inhibition [9]: < 30%; IC50 [14]: > 10000 nM; inhibition [15]: < 30% |
| O=C(Nc1ccc2ccccc2n1)c1nscc1NCc1ccncc1 | < 30% | < 30% | < 30% | < 30% | < 30% | < 30% | < 30% | < 30% | < 30% | < 30% | < 30% | < 30% | < 30% | < 30% | < 30% | inhibition [2]: < 30%; IC50 [3]: 380 nM; IC50 [4]: 440 nM; inhibition [9]: < 30%; IC50 [14]: 770 nM; inhibition [15]: < 30% |
| O=C(Nc1ccc(Cl)cc1)c1nscc1NCc1ccncc1 | < 30% | < 30% | < 30% | < 30% | < 30% | < 30% | < 30% | < 30% | < 30% | < 30% | < 30% | < 30% | < 30% | < 30% | < 30% | – |
| O=C(Nc1ccc2[nH]ncc2c1)c1nscc1NCc1ccncc1 | < 30% | < 30% | < 30% | < 30% | < 30% | < 30% | < 30% | < 30% | < 30% | < 30% | < 30% | < 30% | < 30% | < 30% | < 30% | – |
| O=C(Nc1ccccc1Br)c1nscc1NCc1ccncc1 | < 30% | < 30% | < 30% | < 30% | < 30% | < 30% | < 30% | < 30% | < 30% | < 30% | < 30% | < 30% | < 30% | < 30% | < 30% | – |
| Cc1ccc(NC(=O)c2nscc2NCc2ccncc2)c(F)c1 | < 30% | < 30% | < 30% | < 30% | < 30% | < 30% | < 30% | < 30% | < 30% | < 30% | < 30% | < 30% | < 30% | < 30% | < 30% | – |
| O=C(Nc1cccc(C(F)(F)F)c1)c1nscc1NCc1ccc(F)c(F)c1 | < 30% | < 30% | < 30% | < 30% | < 30% | < 30% | < 30% | < 30% | < 30% | < 30% | < 30% | < 30% | < 30% | < 30% | < 30% | – |
| Cc1cc(NC(=O)c2nscc2NCc2ccncc2)ccc1C(F)(F)F | < 30% | < 30% | < 30% | < 30% | < 30% | < 30% | < 30% | < 30% | < 30% | < 30% | < 30% | < 30% | < 30% | < 30% | < 30% | – |
| O=C(Nc1cccc(Br)c1)c1nscc1NCc1cnoc1 | < 30% | < 30% | < 30% | < 30% | < 30% | < 30% | < 30% | < 30% | < 30% | < 30% | < 30% | < 30% | < 30% | < 30% | < 30% | – |
